Residues, ends and D or L forms follow the SMILES beside them. *: point of attachment. Cbz = O=C(OCc1ccccc1)*; CH2F = FC*
How the values were obtained:
[1] = test system: PANC-1 and KP4 cells; test: Cell death manner assay (co-treatment with death pathway inhibitors, CCK-8); assay type: cell-based; settings: 10 µM Z-VAD-FMK, 5 mM 3-MA, 10 µM Nec-1, 10 µM Fer-1 with ZQJ29, 24 h
Description: To investigate the mechanism of ZQJ29 in pancreatic cancer proliferation inhibition, the manners of cell death were analyzed. The cell apoptosis inhibitor Z‐VAD‐FMK, cell autophagy inhibitor 3‐methyladenine, cell necrosis inhibitor necrostatin‐1, cell ferroptosis inhibitor Ferrostatin‐1, and cell ferroptosis agonist Erastin were purchased […] (MCE, USA) and stored at −20 °C. PANC‐1 and KP4 cells were seeded with a density of 2000 cells/100 µL well^−1 into 96 well plates. After 24 h, 10 µM Z‐VAD‐FMK, 5 mM 3‐methyladenine, 10 µM necrostatin‐1, 10 µM Ferrostatin‐1, and 10 µM Erastin were added and co‐incubated with ZQJ29 (1 µM), respectively, for 24 h. Then, 10 µL CCK‐8 was added and incubated at 37 °C for an additional 1 h, the absorbance was measured at 450 nm. The percentage of viability was calculated.

[2] = test system: PANC-1; test: CCK-8 cytotoxicity assay, PANC-1; assay type: cell-based; settings: PANC-1, 72 h, average of 3 parallel tests
Description: (§1) Cell viability was evaluated using the Cell Counting Kit‐8 (Beyotime, Shanghai, China) assay. Cells were seeded in 96‐well plates at a density of 2×10^3 cells to allow for attachment. After treatment with ZQJ29 (0.001, 0.01, 0.1, 10, and 25 µM) for 24, 48, and 72 h, 10 µL of CCK‐8 solution was added to each well and incubated for 1 h. The optical density values were then measured at 450 nm using a multifunctional enzyme‐linked immunosorbent assay reader (Tecan, Spark, Switzerland).

[3] = test system: KP4; test: CCK-8 cytotoxicity assay, KP4; assay type: cell-based; settings: KP4, 72 h, average of 3 parallel tests
Description: as §1

[4] = test system: A549; test: CCK-8 cytotoxicity assay, A549; assay type: cell-based; settings: A549, 72 h
Description: as §1

[5] = test system: H1975; test: CCK-8 cytotoxicity assay, H1975; assay type: cell-based
Description: as §1

[6] = test system: MCF; test: CCK-8 cytotoxicity assay, MCF; assay type: cell-based; settings: 72 h
Description: as §1

[7] = test system: HeLa; test: CCK-8 cytotoxicity assay, HeLa; assay type: cell-based; settings: 72 h
Description: as §1

[8] = test system: HCT116; test: CCK-8 cytotoxicity assay, HCT116; assay type: cell-based; settings: HCT116, 72 h
Description: as §1

[9] = test system: JHH7; test: CCK-8 cytotoxicity assay, JHH7; assay type: cell-based; settings: JHH7, 72 h
Description: as §1

[10] = test system: HEK-293T; test: CCK-8 cytotoxicity assay, HEK-293T (normal cell line); assay type: cell-based; settings: 72 h
Description: as §1

[11] = test system: LX2; test: CCK-8 cytotoxicity assay, LX2 (normal cell line); assay type: cell-based
Description: as §1

[12] = test system: THLE-2; test: CCK-8 cytotoxicity assay, THLE-2 (normal cell line); assay type: cell-based; settings: 72 h
Description: as §1

[13] = test system: HPDE6-C7; test: CCK-8 cytotoxicity assay, HPDE6-C7 (normal cell line); assay type: cell-based
Description: as §1

[14] = design: method as in PMID 38859952; settings: DHA; cited from earlier work
[15] = test system: PANC-1 tumors; test: PANC-1 subcutaneous xenograft antitumor activity; assay type: in vivo, BALB/c nude mice; settings: vs control
Description: (§2) Five‐week‐old male BALB/c nude mice were purchased from Shanghai Jihui Laboratory Animal Breeding Co., Ltd. (Shanghai, China). After a one‐week acclimatization period, PANC‐1 cells were subcutaneously injected at a dose of 5 × 10^6 cells per mouse. Four weeks post‐injection, once tumor volumes reached 50–100 mm^3, the tumor‐bearing animals were randomly divided into four groups, each consisting of six animals. ZQJ29 was prepared in a 0.5% CMC‐Na solution, while OXA was dissolved in saline. The control group was treated with oral gavage of 0.5% CMC‐Na, while the positive control group was administered intraperitoneal injections of OXA at a dosage of 3 mg kg^−1 every three days. The test groups were treated with oral gavage of ZQJ29 at dosages of 25 and 50 mg kg day^−1. Mouse weights were monitored every other day. Tumor measurements were taken every other day using calipers, and the tumor volume was calculated using the following formula: ½ × length × width^2. Drug administered continued for three weeks. After blood collection at the end of the administration, the mice were humanely euthanized, and their vital organs were promptly harvested, preserved, and embedded in paraffin for H&E staining.

[16] = Toxicity in tumor-bearing mice (body weight, ALT/AST, H&E); assay type: in vivo, BALB/c nude mice
Description: as §2
Following the experiments, organs from mice, including hearts, livers, spleens, lungs, and kidneys were swiftly collected and fixed in 4% paraformaldehyde overnight. The tissues were then embedded in paraffin. Afterward, 4‐µm‐thick sections were produced and stained using H&E. Images of these sections were captured with a Leica DM4000b microscope (Germany).
Blood samples were collected and placed in a biochemical incubator for 30 min, followed by centrifugation at 6000 rpm for 10 min. The supernatant was used to measure the following indicators: ALT and AST (both from Jiancheng, Nanjing, China).

Cn1cnc(N)c2ncnc1-2 [3‐MA, 3‐methyladenine]
reversal of ZQJ29-induced cell death by co-treatment [1]: did not reverse

CN1C(=O)C(Cc2c[nH]c3ccccc23)NC1=S (stereo not drawn) [Nec‐1, necrostatin‐1]
reversal of ZQJ29-induced cell death by co-treatment [1]: did not reverse

COC(=O)C[C@H](NC(=O)[C@H](C)NC(=O)[C@@H](NC(=O)OCc1ccccc1)C(C)C)C(=O)CF [Z‐VAD‐FMK] (Cbz-Val-Ala-Asp(OMe)-CH2F)
reversal of ZQJ29-induced cell death by co-treatment [1]: did not reverse

CCOC(=O)c1ccc(NC2CCCCC2)c(N)c1 [Fer‐1, Ferrostatin‐1]
reversal of ZQJ29-induced cell death by co-treatment [1]: reversed

N.N.[Cl][Pt][Cl] [DDP]
IC50 [2]: > 10 µM
IC50 [3]: > 10 µM
IC50 [4]: > 10 µM
IC50 ([5]; H1975, 72 h): > 10 µM
IC50 [6]: 0.036 ± 0.028 µM
IC50 [7]: 0.282 ± 0.11 µM
IC50 [8]: 0.071 ± 0.042 µM
IC50 [9]: > 10 µM
IC50 [10]: > 10 µM
IC50 ([11]; 72 h): > 10 µM
IC50 [12]: 1.46 ± 0.984 µM
IC50 ([13]; 72 h): > 10 µM

C[C@H]1[C@@H](O)O[C@@H]2O[C@@]3(C)CC[C@H]4[C@H](C)CC[C@@H]1[C@@]24OO3 [DHA, dihydroartemisinin]
IC50 ([2]; Homo sapiens): > 10 µM
IC50 ([3]; Homo sapiens, KP-4): > 10 µM
IC50 ([4]; Homo sapiens): > 10 µM
IC50 ([5]; Homo sapiens, NCI-H1975, 72 h): > 10 µM
IC50 [6]: > 10 µM
IC50 ([7]; Homo sapiens): > 10 µM
IC50 ([8]; Homo sapiens, HCT-116): > 10 µM
IC50 [9]: > 10 µM
IC50 ([10]; Homo sapiens): > 10 µM
IC50 ([11]; Homo sapiens, LX-2, 72 h): > 10 µM
IC50 ([12]; Homo sapiens): 8.66 ± 0.714 µM
IC50 ([13]; HPDE6c7, 72 h): > 10 µM
t1/2 [14]: 30 min

O=C1[O][Pt]2([NH][C@@H]3CCCC[C@H]3[NH]2)[O]C1=O [OXA, oxaliplatin]
IC50 [2]: > 10 µM
IC50 [3]: > 10 µM
IC50 [4]: 2.47 ± 0.41 µM
IC50 ([5]; H1975, 72 h): 3.49 ± 0.552 µM
IC50 [6]: 0.196 ± 0.087 µM
IC50 [7]: 0.51 ± 0.121 µM
IC50 [8]: 0.103 ± 0.026 µM
IC50 [9]: 7.15 ± 2.6 µM
IC50 [10]: > 10 µM
IC50 ([11]; 72 h): 2.46 ± 0.56 µM
IC50 [12]: 0.777 ± 0.188 µM
IC50 ([13]; 72 h): 2.7 ± 0.567 µM
tumor growth ([15]; ZQJ29 25 and 50 mg/kg/day oral gavage, OXA 3 mg/kg i.p. every three days, three weeks): effectively inhibited
expression of Ki67 and PCNA in tumor tissue (IHC) ([15]; after treatment): significantly reduced
post-experiment levels of ALT and AST ([16]; ZQJ29 50 mg/kg, OXA 3 mg/kg i.p.): significantly elevated
body weight during the whole treatment period ([16]; tumor-bearing nude mice, three weeks): decreased significantly

CC1CCC2C(C)C(OCCNCCOC3OC4OC5(C)CCC6C(C)CCC(C3C)C46OO5)OC3OC4(C)CCC1C32OO4 (stereo not drawn) [SM1044]
IC50 ([2]; Homo sapiens): 5.95 ± 0.501 µM
IC50 ([3]; Homo sapiens, KP-4): 3 ± 0.799 µM
IC50 ([4]; Homo sapiens): 3.45 ± 1.76 µM
IC50 ([5]; Homo sapiens, NCI-H1975, 72 h): 6.88 ± 0.014 µM
IC50 [6]: 1.33 ± 0.303 µM
IC50 ([7]; Homo sapiens): 2.29 ± 0.429 µM
IC50 ([8]; Homo sapiens, HCT-116): 4.98 ± 2.36 µM
IC50 [9]: 2.13 ± 0.573 µM
IC50 ([10]; Homo sapiens): > 10 µM
IC50 ([11]; Homo sapiens, LX-2, 72 h): > 10 µM
IC50 ([12]; Homo sapiens): > 10 µM
IC50 ([13]; HPDE6c7, 72 h): > 10 µM
